Measurements reported in ChEMBL document CHEMBL1150961, “Tenuecyclamides A-D, cyclic hexapeptides from the cyanobacterium Nostoc spongiaeforme var. tenue” (1998).

tested on: Paracentrotus lividus; experiment: Inhibition of sea urchin egg fertilization by sea urchin sperm assessed as inhibition of divided eggs; format: functional

SMILES	ED100 [µM]
Cc1oc2nc1C(=O)NC(C)c1nc(cs1)C(=O)NC(C)c1nc(cs1)C(=O)N[C@H]2C (stereo partly drawn) [TENUECYCLAMIDE A]	10.8
CSCC[C@@H]1NC(=O)c2csc(n2)CNC(=O)c2nc(oc2C)[C@H](C)NC(=O)c2csc1n2 [TENUECYCLAMIDE C]	9
Cc1oc2nc1C(=O)NCc1nc(cs1)C(=O)N[C@@H](CC[S+](C)[O-])c1nc(cs1)C(=O)N[C@H]2C (stereo partly drawn) [TENUECYCLAMIDE D]	19.1
